Legend:
[1] = tested on: ALOMY; assay: Pre-emergence action at 320 g/ha against ALOMY; type: in vivo, Alopecurus myosuroides; settings: scored visually after about 3 weeks vs untreated controls (100% = plants have died)
In short: (§1)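 Percent herbicidal activity was assessed by eye roughly three weeks post-application, comparing with untreated plants. Treatment consisted of applying formulated compound in water plus 0.5% additive to covering soil at 600 l/ha before emergence.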

[2] = tested on: AVEFA; assay: Pre-emergence action at 320 g/ha against AVEFA; type: in vivo; settings: visual scoring after about 3 weeks vs untreated controls
Text: (§2) b) Seeds of monocotyledonous and dicotyledonous weed plants and crop plants are placed in plastic or organic planting pots and covered with soil. The compounds of the invention, formulated in the form of wettable powders (WP) or as emulsion concentrates (EC), are then applied onto the surface of the covering soil as aqueous suspension or emulsion with addition of 0.5% additive at a water application rate of 600 l/ha (converted). After the treatment, the pots are placed in a greenhouse and kept under good growth conditions for the trial plants. After about 3 weeks, the effect of the preparations is scored visually in comparison with untreated controls as percentages. For example, 100% activity=the plants have died, 0% activity=like control plants. Tables 13 to 26 below show the effects of selected compounds of the general formula (I) on various harmful plants and at an application rate corresponding to 320 g/ha, which were obtained by the experimental procedure mentioned above.

[3] = tested on: DIGSA; assay: Pre-emergence action at 320 g/ha against DIGSA; type: in vivo, Digitaria sanguinalis; settings: visual scoring after about 3 weeks vs untreated controls
Text: as §2

[4] = tested on: ECHGC; assay: Pre-emergence action at 320 g/ha against ECHGC; type: in vivo, Echinochloa crus-galli; settings: visual scoring after about 3 weeks vs untreated controls
Text: as §2

[5] = tested on: LOLRI; assay: Pre-emergence action at 320 g/ha against LOLRI; type: in vivo, Lolium rigidum; settings: visual scoring after about 3 weeks vs untreated controls
Text: as §2

[6] = tested on: SETVI; assay: Pre-emergence action at 320 g/ha against SETVI; type: in vivo, Setaria viridis; settings: visual scoring after about 3 weeks vs untreated controls
Text: as §2

[7] = tested on: AMARE; assay: Pre-emergence action at 320 g/ha against AMARE; type: in vivo, Amaranthus retroflexus; settings: visual scoring after about 3 weeks vs untreated controls
In short: as §1

[8] = tested on: MATIN; assay: Pre-emergence action at 320 g/ha against MATIN; type: in vivo, Tripleurospermum inodorum (Matricaria inodora); settings: visual scoring after about 3 weeks vs untreated controls
Text: as §2

[9] = tested on: POLCO; assay: Pre-emergence action at 320 g/ha against POLCO; type: in vivo, Fallopia convolvulus (Polygonum convolvulus); settings: visual scoring after about 3 weeks vs untreated controls
In short: as §1

[10] = tested on: VERPE; assay: Pre-emergence action at 320 g/ha against VERPE; type: in vivo, Veronica persica; settings: visual scoring after about 3 weeks vs untreated controls
Text: as §2

[11] = tested on: VIOTR; assay: Pre-emergence action at 320 g/ha against VIOTR; type: in vivo, Viola tricolor; settings: dosage 320 g/ha
In short: as §1

[12] = tested on: ALOMY; assay: Pre-emergence action against ALOMY, 1280 g/ha; type: in vivo, Alopecurus myosuroides; settings: visual scoring after about 3 weeks vs untreated controls, 100% = plants have died, 0% = like control plants
In short: (§3)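 Compound applied as WP or EC in aqueous spray (0.5% additive, 600 L/ha) to the surface of sandy loam covering freshly sown seeds. After about 3 weeks under good greenhouse conditions, damage is given as visual percentage, 100% meaning plant death.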

[13] = tested on: DIGSA; assay: Pre-emergence action against DIGSA, 1280 g/ha; type: in vivo, Digitaria sanguinalis; settings: visual scoring after about 3 weeks vs untreated controls, 100% = plants have died, 0% = like control plants
In short: as §3

[14] = tested on: ECHCG; assay: Pre-emergence action against ECHCG, 1280 g/ha; type: in vivo, Echinochloa crus-galli; settings: visual scoring after about 3 weeks vs untreated controls, 100% = plants have died, 0% = like control plants
In short: as §3

[15] = tested on: LOLRI; assay: Pre-emergence action against LOLRI, 1280 g/ha; type: in vivo, Lolium rigidum; settings: visual scoring after about 3 weeks vs untreated controls, 100% = plants have died, 0% = like control plants
In short: as §3

[16] = tested on: POAAN; assay: Pre-emergence action against POAAN, 1280 g/ha; type: in vivo, Poa annua; settings: visual scoring after about 3 weeks vs untreated controls, 100% = plants have died, 0% = like control plants
In short: as §3

[17] = tested on: SETVI; assay: Pre-emergence action against SETVI, 1280 g/ha; type: in vivo, Setaria viridis; settings: visual scoring after about 3 weeks vs untreated controls, 100% = plants have died, 0% = like control plants
In short: as §3

[18] = tested on: AMARE; assay: Pre-emergence action against AMARE, 1280 g/ha; type: in vivo, Amaranthus retroflexus; settings: scored visually after about 3 weeks vs untreated controls (100% = plants have died)
In short: as §3

[19] = tested on: MATIN; assay: Pre-emergence action against MATIN, 1280 g/ha; type: in vivo, Tripleurospermum inodorum (Matricaria inodora); settings: scored visually after about 3 weeks vs untreated controls (100% = plants have died)
In short: as §3

[20] = tested on: STEME; assay: Pre-emergence action against STEME, 1280 g/ha; type: in vivo, Stellaria media; settings: scored visually after about 3 weeks vs untreated controls (100% = plants have died)
In short: as §3

[21] = tested on: VERPE; assay: Pre-emergence action against VERPE, 1280 g/ha; type: in vivo, Veronica persica; settings: scored visually after about 3 weeks vs untreated controls (100% = plants have died)
In short: as §3

[22] = tested on: ALOMY; assay: Post-emergence action against ALOMY, 1.28 kg/ha; type: in vivo, Alopecurus myosuroides; settings: dosage 1280 g/ha, visual rating about 3 weeks after treatment vs untreated controls
In short: (§4)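 Greenhouse pot test, sandy loam; weeds sprayed post-emergence at one-leaf stage (2–3 weeks after sowing) with WP or EC formulation plus 0.5% additive, 600 l/ha water. Visual rating after about 3 weeks versus untreated controls, 100% = plants dead, 0% = like control.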

[23] = tested on: DIGSA; assay: Post-emergence action against DIGSA, 1.28 kg/ha; type: in vivo, Digitaria sanguinalis; settings: dosage 1280 g/ha, visual rating about 3 weeks after treatment vs untreated controls
In short: as §4

[24] = tested on: ECHCG; assay: Post-emergence action against ECHCG, 1.28 kg/ha; type: in vivo, Echinochloa crus-galli; settings: dosage 1280 g/ha, visual rating about 3 weeks after treatment vs untreated controls
In short: as §4

[25] = tested on: LOLRI; assay: Post-emergence action against LOLRI, 1.28 kg/ha; type: in vivo, Lolium rigidum; settings: dosage 1280 g/ha, visual rating about 3 weeks after treatment vs untreated controls
Protocol: (§5) • a) Seeds of mono- and dicotyledonous weed plants are placed in plastic pots in sandy loam soil (twin sowing with one species each of mono- or dicotyledonous weed plants per pot), covered with soil and cultivated in a greenhouse under controlled growth conditions. 2 to 3 weeks after sowing, the test plants are treated at the one-leaf stage. The compounds of the invention, formulated in the form of wettable powders (WP) or as emulsion concentrates (EC), are applied to the green parts of the plants as aqueous suspension or emulsion with addition of 0.5% additive at a water application rate equivalent to 600 litres per hectare. After the test plants have been kept in the greenhouse under optimum growth conditions for about 3 weeks, the activity of the preparations is rated visually in comparison to untreated controls. For example, 100% activity=the plants have died, 0% activity=like control plants. As shown by the results, compounds of the general formula (I) of the invention, in post-emergence treatment, have very good herbicidal efficacy (90% to 100% herbicidal action) against harmful plants such as Abutilon theophrasti, Digitaria sanguinalis, Echinochloa crus-galli, Matricaria inodora, Poa annua, at an application rate of 1.28 kg of active substance per hectare.

[26] = tested on: POAAN; assay: Post-emergence action against POAAN, 1.28 kg/ha; type: in vivo, Poa annua; settings: dosage 1280 g/ha, visual rating about 3 weeks after treatment vs untreated controls
In short: as §4

[27] = tested on: SETVI; assay: Post-emergence action against SETVI, 1.28 kg/ha; type: in vivo, Setaria viridis; settings: dosage 1280 g/ha, visual rating about 3 weeks after treatment vs untreated controls
Protocol: as §5

[28] = tested on: ABUTH; assay: Post-emergence action against ABUTH, 1.28 kg/ha; type: in vivo, Abutilon theophrasti; settings: dosage 1280 g/ha, visual rating about 3 weeks after treatment vs untreated controls (100% = plants died)
In short: as §4

[29] = tested on: AMARE; assay: Post-emergence action against AMARE, 1.28 kg/ha; type: in vivo, Amaranthus retroflexus; settings: dosage 1280 g/ha, visual rating about 3 weeks after treatment vs untreated controls (100% = plants died)
In short: as §4

[30] = tested on: MATIN; assay: Post-emergence action against MATIN, 1.28 kg/ha; type: in vivo, Tripleurospermum inodorum (Matricaria inodora); settings: dosage 1280 g/ha, visual rating about 3 weeks after treatment vs untreated controls (100% = plants died)
In short: as §4

[31] = tested on: STEME; assay: Post-emergence action against STEME, 1.28 kg/ha; type: in vivo, Stellaria media; settings: dosage 1280 g/ha, visual rating about 3 weeks after treatment vs untreated controls (100% = plants died)
In short: as §4

[32] = tested on: VERPE; assay: Post-emergence action against VERPE, 1.28 kg/ha; type: in vivo, Veronica persica; settings: dosage 1280 g/ha, visual rating about 3 weeks after treatment vs untreated controls (100% = plants died)
In short: as §4

Row | SMILES | Pre-emergence action at 320 g/ha against ALOMY in % [1] [%] | Pre-emergence action against AVEFA in % [2] [%] | Pre-emergence action against DIGSA in % [3] [%] | Pre-emergence action against ECHGC in % [4] [%] | Pre-emergence action against LOLRI in % [5] [%] | Pre-emergence action against SETVI in % [6] [%] | Pre-emergence action against AMARE in % [7] [%] | Pre-emergence action against MATIN in % [8] [%] | Pre-emergence action against POLCO in % [9] [%] | Pre-emergence action against VERPE in % [10] [%] | Pre-emergence action against VIOTR in % [11] [%] | Pre-emergence action against ALOMY [12] [%] | Pre-emergence action against DIGSA [13] [%] | Pre-emergence action against ECHCG [14] [%] | Pre-emergence action against LOLRI [15] [%] | Pre-emergence action against POAAN [16] [%] | Pre-emergence action against SETVI [17] [%] | Pre-emergence action against AMARE [18] [%] | Pre-emergence action against MATIN [19] [%] | Pre-emergence action against STEME [20] [%] | other results
1 | COC(=O)C(C)Oc1nn(-c2ccccc2F)c(-c2ccc(F)nc2)c1Br (stereo not drawn) [VII-060] | 100 | 90 | 100 | 90 | 100 | 90 | 100 | 90 | 90 | 100 | 100 | – | – | – | – | – | – | – | – | – | –
2 | COC(=O)COc1nn(-c2ccccc2F)c(-c2ccc(F)nc2)c1I [VII-113] | 90 | 90 | – | 90 | 100 | 90 | 100 | 90 | 90 | 90 | 100 | – | – | – | – | – | – | – | – | – | –
3 | CCOC(=O)COc1nn(-c2ccccc2F)c(-c2ccc(F)nc2)c1C1CC1 [VII-119] | – | – | – | – | – | – | – | – | – | – | – | 100 | 100 | 100 | 100 | 100 | 100 | 100 | 100 | 100 | Pre-emergence action against VERPE [21]: 100%; Post-emergence action against ALOMY [22]: 100%; Post-emergence action against DIGSA [23]: 100%; Post-emergence action against ECHCG [24]: 100%; Post-emergence action against LOLRI [25]: 100%; Post-emergence action against POAAN [26]: 100%; Post-emergence action against SETVI [27]: 100%; Post-emergence action against ABUTH [28]: 90%; Post-emergence action against AMARE [29]: 100%; Post-emergence action against MATIN [30]: 100%; Post-emergence action against STEME [31]: 100%; Post-emergence action against VERPE [32]: 100%
4 | O=C(COc1nn(-c2ccccc2F)c(-c2ccnc(F)c2)c1Br)OCC1CCOC1 (stereo not drawn) [VIII-011] | 100 | – | 100 | 90 | 90 | 90 | 100 | 90 | – | – | 100 | 90 | 90 | 100 | 100 | 100 | 100 | 100 | 100 | 100 | Pre-emergence action against VERPE [21]: 100%; Post-emergence action against ALOMY [22]: 100%; Post-emergence action against DIGSA [23]: 100%; Post-emergence action against ECHCG [24]: 100%; Post-emergence action against POAAN [26]: 100%; Post-emergence action against SETVI [27]: 100%; Post-emergence action against ABUTH [28]: 90%; Post-emergence action against AMARE [29]: 100%; Post-emergence action against MATIN [30]: 90%; Post-emergence action against VERPE [32]: 100%

— patent publication US12180187B2, “1-phenyl-5-azinylpyrazolyl-3-oxyalkyl acids and their use for controlling unwanted plant growth” (BAYER AKTIENGESELLSCHAFT, priority 2019, dated 2024)
